In article PMC10298530, “Synthesis and Anticancer Activity of A-Ring-Modified Derivatives of Dihydrobetulin” (International Journal of Molecular Sciences, 2023):

Test system: HBL-100 cells
Test: Cell cycle analysis (DAPI, flow cytometry), HBL-100
Assay type: cell-based, human
Conditions: for Cell cycle of HBL-100, G0/G1 / Cell cycle of HBL-100, G2/M / Cell cycle of HBL-100, S-phase / Cell cycle of HBL-100, subG0/G1: dose = IC50
Experimental: The cells were trypsinized and rinsed with the growth medium. Then, the cells were harvested by centrifugation at 500× g for 3 min, and the supernatant was discarded. The cells were washed with PBS (PanEco, Moscow, Russia) twice and centrifuged under similar conditions. The cells were resuspended in 500 μL of PBS, put into centrifuge tubes and fixed by adding 4.5 mL of 70% ethanol dropwise (on ice). The samples were fixed at 4 °C. Overnight, the fixed cells were centrifugally collected (1000× g, 4 °C, 5 min) and washed again with PBS. The cells were finally resuspended in DAPI with 0.1% Triton X-100 in PBS solution (10 μg/mL, Sigma–Aldrich, St. Louis, MO, USA), and stained for 30 min at room temperature in darkness. For each sample, at least 50,000 cells were analyzed using the CytoFlex S flow cytometer (Beckman Coulter, Brea, CA, USA). Cell cycle populations were quantified from DNA histograms with the FlowJo software (ver. X 10.0.7r2, FlowJo Software, San Jose, CA, USA).

COC(=O)[C@]12CC[C@@H](C(C)C)[C@@H]1[C@H]1CC[C@@H]3[C@@](C)(CCC#N)[C@H](C(=O)C(Br)Br)CC[C@@]3(C)[C@]1(C)CC2 [compound 31, 2-Cyano-24,24-dibromo-4-oxo-3,4-seco-3,23-dinorlupan-28-oic acid methyl ester]
Cell cycle of HBL-100, G0/G1 (12 h): 59.78±0.94% | Cell cycle of HBL-100, G2/M (12 h): 15.88±0.50% | Cell cycle of HBL-100, S-phase (12 h): 24.35±0.43% | Cell cycle of HBL-100, subG0/G1 (12 h): 1.44 ± 0.44% | Cell cycle of HBL-100, G0/G1 (13 h): 56.56±0.16% | Cell cycle of HBL-100, G2/M (13 h): 16.70±0.71% | Cell cycle of HBL-100, S-phase (13 h): 26.74±0.54% | Cell cycle of HBL-100, subG0/G1 (13 h): 1.74±0.05% | Cell cycle of HBL-100, G0/G1 (14 h): 56.69±0.01% | Cell cycle of HBL-100, G2/M (14 h): 16.96±0.16% | Cell cycle of HBL-100, S-phase (14 h): 26.35±0.16% | Cell cycle of HBL-100, subG0/G1 (14 h): 1.74±0.18% | Cell cycle of HBL-100, G0/G1 (15 h): 57.83±1.04% | Cell cycle of HBL-100, G2/M (15 h): 16.29±0.55% | Cell cycle of HBL-100, S-phase (15 h): 25.88±0.49% | Cell cycle of HBL-100, subG0/G1 (15 h): 2.38±0.42% | Cell cycle of HBL-100, G0/G1 (16 h): 56.91±0.07% | Cell cycle of HBL-100, G2/M (16 h): 18.83±0.14% | Cell cycle of HBL-100, S-phase (16 h): 24.26±0.08% | Cell cycle of HBL-100, subG0/G1 (16 h): 4.89±1.93% | Cell cycle of HBL-100, G0/G1 (17 h): 55.78±0.79% | Cell cycle of HBL-100, G2/M (17 h): 18.39±1.04% | Cell cycle of HBL-100, S-phase (17 h): 25.83±0.24% | Cell cycle of HBL-100, subG0/G1 (17 h): 3.50±0.42% | Cell cycle of HBL-100, G0/G1 (18 h): 56.81±0.03% | Cell cycle of HBL-100, G2/M (18 h): 15.38±0.01% | Cell cycle of HBL-100, S-phase (18 h): 27.81±0.04% | Cell cycle of HBL-100, subG0/G1 (18 h): 4.39±0.82% | Cell cycle of HBL-100, G0/G1 (24 h): 66.48 ± 1.33% | Cell cycle of HBL-100, G2/M (24 h): 4.43 ± 0.50% | Cell cycle of HBL-100, S-phase (24 h): 29.09±0.89% | Cell cycle of HBL-100, subG0/G1 (24 h): 8.22 ± 0.59% | effect on cell cycle progression (HBL-100 (parental) cells, 12-24 h, IC50): blocked or slowed down the cell cycle progression through the G0/G1 phase
